# Experimental data: paper PMC3368197, “Noncytotoxic and Antitumour-Promoting Activities of Garcinia Acid Esters from Garcinia atroviridis Griff. ex T. Anders (Guttiferae)” (Evidence-based Complementary and Alternative Medicine : eCAM, 2012)
# Where two headings read alike, the source gives them in different places.
# What was measured:
# [1] = test system: Brine shrimp (Artemia saline Leach); assay: Brine shrimp lethality/toxicity assay; format: in vivo; details: brine shrimp nauplii, preliminary test concentration 300 μM
# Procedure: Brine shrimp (Artemia saline Leach) eggs (Gold Eagle, USA) were placed in a hatching tank containing sea water for 48 h. Each compound (6 μmol) was dissolved in 0.2 mL methylene chloride:methanol (1 : 1) to prepare a stock solution of 30 mM. From the stock solutions, 50 μL was transferred to different vials and allowed to evaporate. After evaporation, 5 mL of brine was added to each vial in triplicate to prepare a preliminary test concentration corresponding to 300 μM. Ten shrimp nauplii were added to each vial (30 shrimps per concentration). The number of survivors out of 30 shrimps per concentration was recorded.
# [2] = DPPH radical scavenging method; details: 0.3 mM, 30 min
# Procedure: The methanol solution of 2,2-diphenyl-1-picrylhydrazyl hydrate (DPPH) (Aldrich Chem. Co., USA) radicals (1 mL, 0.3 mM) was added to each sample (1 mM, 0.5 mL) and was shaken vigorously. The absorbance of each sample was measured at 517 nm after allowing it to stand for 30 min. Each sample (final concentration, 0.3 mM) was assayed in triplicate and averaged. Standard antioxidants, that is, butylated hydroxytoluene (BHT) and ascorbic acid, were used as positive controls.
# [3] = test system: Epstein-Barr virus early antigen (EBV-EA) activation; assay: In vitro antitumour-promoting assay: inhibition of EBV early antigen activation in Raji cells; format: cell-based; details: for IC50: human gammaherpesvirus 4, Raji cells, 3 mM sodium n-butyrate + 50 nM PMA, 48 h
# Procedure: The inhibition of Epstein-Barr virus (EBV) activation was used to evaluate in vitro antitumour-promoting activity. Raji cells were incubated for 48 h at 37°C under 5% CO2 in 1 mL (~5 × 10^5 cells) of RPMI-1640 medium containing 3 mM sodium n-butyrate ([…] Tesque, Japan), 50 nM phorbol 12-myristate 13-acetate (PMA) (Sigma, USA) and the test compounds (600 μM) per well of a 24-well plate. Conventional indirect immunofluorescence staining of early antigen (EA) with high-titre EA-positive serum (EA titre 1 : 1,280) obtained from nasopharyngeal carcinoma (NPC) patients (1 : 20 serum dilution) followed by a 1 : 30 dilution of fluorescein-isothiocyanate-(FITC-)labeled IgG (Sigma, USA) was used to measure EBV activation. The ratio of EA-induced cells to the control experiments only with sodium n-butyrate and PMA was around 50%. The test compounds showing antitumour-promoting activity were serially diluted (2-fold) to determine the IC50 values.
# [4] = test system: CEM-SS (human T-lymphoblastic leukemia) cells; assay: MTT cytotoxicity assay; format: cell-based; details: 72 h
# Procedure: The CEM-SS (human T-lymphoblastic leukemia) cell line was obtained from the National Cancer Institute, USA, and the Raji (human B-lymphoblastoid) cell line was provided by Prof. K. Koshimizu, Kinki University, Japan. Cells were cultured in RPMI-1640 (Sigma, USA) medium with 10% v/v foetal calf serum (Sera Lab, UK), 100 IU/mL penicillin (Sigma, USA) and 100 μg/mL streptomycin (Sigma, USA) as a complete growth medium (CGM). Cells were maintained in 25 cm^2 flask with 10 mL of CGM at 37°C with 5% CO2. Every three days the cells were subcultured by splitting the culture with fresh CGM at a ratio of 1 : 4 [10].
# Cytotoxicity was determined using the MTT assay as reported by Ali et al.. Varying concentrations of the test compounds were prepared from the stock solutions by serial dilution in RPMI-1640 to give a volume of 100 μL in each well of a microtiter plate (96-well) as described before. Each well was filled with 100 μl of CEM-SS cell suspension in CGM at 1-2 × 10^5 cells/mL. Controls that contained only CEM-SS cells were included for each sample. The assay for each concentration of extract was performed in triplicate and the culture plates were kept at 37°C with 5% (v/v) CO2 for three days. After 72 h of incubation, 100 μL of medium was removed from each well. […] Absorbance values at 550 nm were measured with a microplate reader (Bio Tek EL 340, USA) after background subtraction at 630 nm. […]
# [5] = test system: Epstein-Barr virus early antigen (EBV-EA) activation; parameters: method as in PMID 9247600, PMID 22140296; details: known antitumour promoter; read-out: IC50, inhibition of EBV activation; cited from earlier work
Compound,LC50 [1] [µM],"Radical scavenging (%), DPPH assay [2] [%]",IC50 [3] [µM],CD50 [4] [µM],fold higher antitumour-promoting activity than compound 2 ([3]; ratio of EBV-EA IC50 values) [fold],IC50 [5] [µM]
"CCCCOC(=O)CC(O)(C(=O)OC)C(O)C(=O)OCCCC (stereo not shown) [Compound 2, 1′,1′′-dibutyl methyl hydroxycitrate]",> 300,5.5,560,> 100,–,–
"CCCCOC(=O)CC1(O)C(=O)OC1C(=O)OCCCC (stereo not shown) [Compound 1, 2-(butoxycarbonylmethyl)-3-butoxycarbonyl-2-hydroxy-3-propanolide]",> 300,3.4,70,> 100,8,–
O=c1c(-c2ccc(O)cc2)coc2cc(O)cc(O)c12 [genistein],–,–,–,–,–,~20
